Structures can show the parent of a compound that is named as a salt.
test system: Cellular Release of Amyloid Peptide 1-40; assay: Test 4: Inhibition of Cellular Release of Amyloid Peptide 1-40; assay type: cell-based, Chinese hamster; settings: Cricetulus griseus, 24 h; read-out: Amyloid-β1-40 release IC50
Description: Chinese hamster ovary cells are transfected with the human gene for amyloid precursor protein. The cells are plated at a density of 8000 cells/well into 96-well microtiter plates and cultivated for 24 hours in DMEM cell culture medium containing 10% FCS. The test compound is added to the cells at various concentrations, and the cells are cultivated for 24 hours in the presence of the test compound.

Compound | IC50 [nM]
C[C@@]1(c2cccc(NC(=O)c3ccc(Br)cn3)n2)COCC(N)=N1 [Example 1, 5-Bromo-pyridine-2-carboxylic acid [6-((R)-5-amino-3-methyl-3,6-dihydro-2H-[1,4]-oxazin-3-yl)-pyridin-2-yl]-amide] | 41
Cc1cnc(C(=O)Nc2ccc(F)c([C@]3(C)CO[C@@](C)(C(F)(F)F)C(N)=N3)n2)cn1 [Example 33, 5-Methyl-pyrazine-2-carboxylic acid [6-((3R,6R)-5-amino-3,6-dimethyl-6-trifluoromethyl-3,6-dihydro-2H-[1,4]oxazin-3-yl)-5-fluoro-pyridin-2-yl]amide] | 130
NC1=NC(CF)(c2cc(NC(=O)c3ccc(Br)cn3)cnc2Cl)COC1 (stereo not drawn) [Example 18, 5-Bromo-pyridine-2-carboxylic acid [5-(5-amino-3-fluoromethyl-3,6-dihydro-2H-[1,4]oxazin-3-yl)-6-chloro-pyridin-3-yl]-amide hydrochloride] | 15
C[C@@]1(c2cccc(NC(=O)c3ncc(C#N)cc3Cl)n2)CO[C@@](C)(C(F)(F)F)C(N)=N1 [Example 20, 3-Chloro-5-cyano-pyridine-2-carboxylic acid [6-((3R,6R)-5-amino-3,6-dimethyl-6-trifluoromethyl-3,6-dihydro-2H-[1,4]oxazin-3-yl)-pyridin-2-yl]-amide] | 5
Cc1cc(C#N)cnc1C(=O)Nc1ccc(F)c([C@@]2(C)CO[C@@](C)(C(F)(F)F)C(N)=N2)n1 [Example 12, 5-Cyano-3-methyl-pyridine-2-carboxylic Acid [6-((3S,6R)-5-amino-3,6-dimethyl-6-trifluoromethyl-3,6-dihydro-2H-[1,4]oxazin-3-yl)-5-fluoro-pyridin-2-yl]-amide] | 280
Cc1cc(C#N)cnc1C(=O)Nc1ccc(F)c([C@@]2(C(F)F)COCC(N)=N2)n1 [Example 39, 5-Cyano-3-methyl-pyridine-2-carboxylic acid [6-((S)-5-amino-3-difluoromethyl-3,6-dihydro-2H-[1,4]oxazin-3-yl)-5-fluoro-pyridin-2-yl]-amide] | 290
Cc1cc(OCF)cnc1C(=O)Nc1ccc(F)c([C@]2(C)CO[C@@](C)(C(F)(F)F)C(N)=N2)n1 [Example 32, 5-Fluoromethoxy-3-methyl-pyridine-2-carboxylic acid [6-((3R,6R)-5-amino-3,6-dimethyl-6-trifluoromethyl-3,6-dihydro-2H-[1,4]oxazin-3-yl)-5-fluoro-pyridin-2-yl]amide] | 26
Cc1cc(C#N)cnc1C(=O)Nc1cc([C@@]2(C)CO[C@@](C)(C(F)(F)F)C(N)=N2)c(F)cn1 [Example 17, 5-Cyano-3-methyl-pyridine-2-carboxylic acid [4-((3S,6R)-5-amino-3,6-dimethyl-6-trifluoromethyl-3,6-dihydro-2H-[1,4]oxazin-3-yl)-5-fluoro-pyridin-2-yl]-amide] | 4800
C[C@@]1(c2cccc(NC(=O)c3ncc(Br)cc3Cl)n2)CO[C@@](C)(C(F)(F)F)C(N)=N1 [Example 22, 5-Bromo-3-chloro-pyridine-2-carboxylic acid [6-((3R,6R)-5-amino-3,6-dimethyl-6-trifluoromethyl-3,6-dihydro-2H-[1,4]oxazin-3-yl)-pyridin-2-yl]-amide] | 29
Cc1cc(OC(F)F)cnc1C(=O)Nc1ccc(F)c([C@]2(C)CO[C@@](C)(C(F)(F)F)C(N)=N2)n1 [Example 29, 5-Difluoromethoxy-3-methyl-pyridine-2-carboxylic acid [6-((3R,6R)-5-amino-3,6-dimethyl-6-trifluoromethyl-3,6-dihydro-2H-[1,4]oxazin-3-yl)-5-fluoro-pyridin-2-yl]amide] | 24
C[C@@]1(c2cc(NC(=O)c3ncc(C#N)cc3Cl)ncc2F)CO[C@@](C)(C(F)(F)F)C(N)=N1 [Example 35, 3-Chloro-5-cyano-pyridine-2-carboxylic acid [4-((3R,6R)-5-amino-3,6-dimethyl-6-trifluoromethyl-3,6-dihydro-2H-[1,4]oxazin-3-yl)-5-fluoro-pyridin-2-yl]-amide] | 140
NC1=NC(CF)(c2cccc(NC(=O)c3ccc(Br)cn3)n2)COC1 (stereo not drawn) [Example 4, 5-Bromo-pyridine-2-carboxylic acid [6-(5-amino-3-fluoromethyl-3,6-dihydro-2H-[1,4]oxazin-3-yl)-pyridin-2-yl]-amide] | 98
Cc1cc(C#N)cnc1C(=O)Nc1ccc(F)c([C@]2(C(F)F)COCC(N)=N2)n1 [Example 38, 5-Cyano-3-methyl-pyridine-2-carboxylic acid [6-((R)-5-amino-3-difluoromethyl-3,6-dihydro-2H-[1,4]oxazin-3-yl)-5-fluoro-pyridin-2-yl]-amide] | 5
[2H]c1nc(C(=O)Nc2cc(C3(CF)COCC(N)=N3)ccn2)c(C([2H])([2H])[2H])c([2H])c1Cl (stereo not drawn) [Example 13, 5-{2-[(5-Chloro-4,6-dideuterio-3-trideuteromethyl-pyridine-2-carbonyl)-amino]-pyridin-4-yl}-5-fluoromethyl-5,6-dihydro-2H-[1,4]oxazin-3-yl-ammonium Acetate] | 550
C[C@@]1(c2cccc(NC(=O)c3ncc(C#N)cc3N)n2)CO[C@@](C)(C(F)(F)F)C(N)=N1 [Example 19, 3-Amino-5-cyano-pyridine-2-carboxylic acid [6-((3R,6R)-5-amino-3,6-dimethyl-6-trifluoromethyl-3,6-dihydro-2H-[1,4]oxazin-3-yl)-pyridin-2-yl]-amide] | 48
[2H]c1nc(C(=O)Nc2cccc([C@]3(C)CO[C@@](C)(C(F)(F)F)C(N)=N3)n2)c(C([2H])([2H])[2H])c([2H])c1Cl [Example 21, 5-Chloro-4,6-dideuterio-3-trideuteriomethyl-pyridine-2-carboxylic acid [6-((3R,6R)-5-amino-3,6-dimethyl-6-trifluoromethyl-3,6-dihydro-2H-[1,4]oxazin-3-yl)-pyridin-2-yl]-amide] | 110
N#Cc1cnc(C(=O)Nc2ccc(F)c([C@]3(C(F)F)COCC(N)=N3)n2)c(Cl)c1 [Example 40, 3-Chloro-5-cyano-pyridine-2-carboxylic acid [6-((R)-5-amino-3-difluoromethyl-3,6-dihydro-2H-[1,4]oxazin-3-yl)-5-fluoro-pyridin-2-yl]-amide] | 12
Cc1cc(C#N)cnc1C(=O)Nc1cccc([C@]2(C)CO[C@@](C)(C(F)(F)F)C(N)=N2)n1 [Example 8, 5-Cyano-3-methyl-pyridine-2-carboxylic Acid [6-((3R,6R)-5-amino-3,6-dimethyl-6-trifluoro-methyl-3,6-dihydro-2H-[1,4]oxazin-3-yl)-pyridin-2-yl]-amide] | 6
[2H]c1nc(C(=O)Nc2cccc(C3(CF)COCC(N)=N3)n2)c(C([2H])([2H])[2H])c([2H])c1Cl (stereo not drawn) [Example 6, 4,6-Dideutero-5-chloro-3-trideuteromethyl-pyridine-2-carboxylic acid [6-(5-amino-3-fluoromethyl-3,6-dihydro-2H-[1,4]oxazin-3-yl)-pyridin-2-yl]-amide] | 63
Cc1cnc(C(=O)Nc2ccc(F)c([C@]3(C)CO[C@@](C)(C(F)(F)F)C(N)=N3)n2)c(C)n1 [Example 41, 3,5-Dimethyl-pyrazine-2-carboxylic acid [6-((3R,6R)-5-amino-3,6-dimethyl-6-trifluoromethyl-3,6-dihydro-2H-[1,4]oxazin-3-yl)-5-fluoro-pyridin-2-yl]amide] | 161
Cc1cc(C#N)cnc1C(=O)Nc1cc([C@]2(C)COC(CF)(CF)C(N)=N2)c(F)cn1 [Example 37, 5-Cyano-3-methyl-pyridine-2-carboxylic acid [4-((R)-5-amino-6,6-bis-fluoromethyl-3-methyl-3,6-dihydro-2H-[1,4]oxazin-3-yl)-5-fluoro-pyridin-2-yl]-amide] | 83
C[C@@]1(c2nc(NC(=O)c3ncc(OCCCF)nc3N)ccc2F)CO[C@@](C)(C(F)(F)F)C(N)=N1 [Example 42, 3-Amino-5-(3-fluoro-propoxy)-pyrazine-2-carboxylic acid [6-((3R,6R)-5-amino-3,6-dimethyl-6-trifluoromethyl-3,6-dihydro-2H-[1,4]oxazin-3-yl)-5-fluoro-pyridin-2-yl]amide] | 72
C[C@@]1(c2cccc(NC(=O)c3ccc(C#N)cn3)n2)CO[C@@](C)(C(F)(F)F)C(N)=N1 [Example 10, 5-Cyano-pyridine-2-carboxylic acid [6-((3R,6R)-5-amino-3,6-dimethyl-6-trifluoromethyl-3,6-dihydro-2H-[1,4]oxazin-3-yl)-pyridin-2-yl]-amide] | 17
C[C@]1(c2cccc(NC(=O)c3ccc(C#N)cn3)n2)CO[C@@](C)(C(F)(F)F)C(N)=N1 [Example 9, 5-Cyano-pyridine-2-carboxylic acid [6-((3S,6R)-5-amino-3,6-dimethyl-6-trifluoromethyl-3,6-dihydro-2H-[1,4]oxazin-3-yl)-pyridin-2-yl]-amide] | 1900
Cc1cc(C#N)cnc1C(=O)Nc1cccc(C2(CF)COCC(N)=N2)n1 (stereo not drawn) [Example 5, 5-Cyano-3-methyl-pyridine-2-carboxylic acid [6-(5-amino-3-fluoromethyl-3,6-dihydro-2H-[1,4]oxazin-3-yl)-pyridin-2-yl]-amide] | 40
C[C@@]1(c2nc(NC(=O)c3nc4ccn(CC(F)F)c4nc3N)ccc2F)CO[C@@](C)(C(F)(F)F)C(N)=N1 [Example 45, 3-Amino-5-(2,2-difluoro-ethyl)-5H-pyrrolo[2,3-b]pyrazine-2-carboxylic acid [6-((3R,6R)-5-amino-3,6-dimethyl-6-trifluoromethyl-3,6-dihydro-2H-[1,4]oxazin-3-yl)-5-fluoro-pyridin-2-yl]-amide] | 3600
NC1=NC(CF)(c2cccc(NC(=O)c3ccc(Cl)cn3)n2)COC1 (stereo not drawn) [Example 3, 5-{6-[(5-Chloro-pyridine-2-carbonyl)-amino]-pyridin-2-yl}-5-fluoromethyl-5,6-dihydro-2H-[1,4]oxazin-3-yl-ammonium Trifluoro Acetate] | 140

— patent US10683287B2, “Heterocyclic derivatives and their use in the treatment of neurological disorders” (Novartis AG, priority 2011, dated 2020)
